Patent US10111950B2, “Modified glycolipids and methods of making and using the same” (Vaccinex, Inc., priority 2013, dated 2018)

Assays:
[1] = target: T1, plate bound mCD1d (Mus musculus, UniProt P11609); assay: Ligand binding to plate bound mCD1d with and without UV activation, ELISA using mAb L363; set-up: species or system murine; settings: for dissociation of CD1d:glycolipid complex after 3 days (L363 ELISA): UV irradiated 365 nm 1 hr, 3 days in PBS+0.05% Triton X-100 at 25° C.; for CD1d/glycolipid complex formation detected by mAb L363 ELISA: plate bound mCD1d 10 μg/ml, glycolipid 5 μM
T1 construct: recombinant soluble murine CD1d (mCD1d) was diluted to 400 μg/ml in PBS pH 7.2
T1 sequence (P11609 22-305 limits assumed): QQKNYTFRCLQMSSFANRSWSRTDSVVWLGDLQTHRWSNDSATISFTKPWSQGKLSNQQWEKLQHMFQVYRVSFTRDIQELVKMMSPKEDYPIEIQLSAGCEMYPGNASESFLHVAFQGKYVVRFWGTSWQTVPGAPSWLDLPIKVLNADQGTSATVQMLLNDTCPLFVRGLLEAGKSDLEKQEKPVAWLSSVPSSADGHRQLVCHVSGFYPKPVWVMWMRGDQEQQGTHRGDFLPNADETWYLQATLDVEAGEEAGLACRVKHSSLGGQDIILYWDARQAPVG
T1 sequence (P01887 21-119 partner): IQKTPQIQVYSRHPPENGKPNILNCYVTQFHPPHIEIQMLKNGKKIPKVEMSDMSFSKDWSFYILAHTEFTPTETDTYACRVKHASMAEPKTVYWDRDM
Method: (§1) The ligand binding affinity of plate bound mCD1d was measured by ELISA using mAb L363 to detect murine CD1d/αGalCer complexes. ELISA plates were coated with mCD1d (10 μg/ml, 30 μl/well) overnight at 4° C. in PBS pH 8.2. Supernatant was then removed along with any unbound protein. Glycolipids (5 μM, 30 μl/well) were loaded and allowed to incubate overnight at 25° C. Supernatant was again removed and the complexes were washed three times with PBS to remove any unbound glycolipid. For those complexes that underwent UV activation, UV crosslinking was performed in solution (30 μl/well PBS) and at a fixed wavelength of 365 nm from a UV lamp (RAD-FREE long wave UV lamp, Schleicher & Schuell). The UV lamp was placed one inch from the sample and the sample was allowed to sit on ice for 1 hr.

[2] = tested on: iNKT hybridoma DN3A4-1.2 with plate bound mCD1d; assay: Plate bound mCD1d:glycolipid complexes with and without UV activation, iNKT DN3A4-1.2 hybridoma stimulation assay (IL-2 ELISA); assay type: cell-based, murine; settings: for iNKT stimulation post-dissociation (IL-2 ELISA): after 3 days dissociation, non-crosslinked mCD1d complexes (UV state not stated for 7DW8-5)
Method: (§2) The ligand binding affinity of plate bound mCD1d was detected by iNKT DN3A4-1.2 hybridoma stimulation assay. mCD1d (10 μg/ml) was loaded with glycolipids (5 μM) overnight at 25° C. ELISA plates were coated with mCD1d:GC complexes (2.5 μg/ml, 30 μl/well) for 12-18 hours at 4° C. in PBS pH 8.2. Supernatant was then removed and the complexes were washed three times with PBS to remove any unbound glycolipid and protein. For those complexes that underwent UV activation, UV crosslinking was performed in solution (30 μl/well PBS) and at a fixed wavelength of 365 nm from a UV lamp (RAD-FREE long wave UV lamp, Schleicher & Schuell). The UV lamp was placed one inch from the sample and the sample was allowed to sit on ice for 1 hr. Supernatant was then removed and the complexes were washed three times with PBS to remove any unbound glycolipid and protein.

[3] = tested on: iNKT hybridoma DN3A4-1.2 with murine CD1d-expressing antigen presenting cells; assay: iNKT hybridoma stimulation (IL-2 secretion) with mCD1d expressing BMDCs; assay type: cell-based, mouse; settings: BMDCs from C57BL/6 mice, BPGC 5 to 0.01 μg/ml for 3 hrs, hybridoma 18 hrs
Method: The activated natural killer cells were calculated based on those secreting IL-2. Specifically, bone marrow-derived dendritic cells (BMDCs) from C57BL/6 mice (10,000 cells in 100 μl culture medium) were plated in wells of a 96 well tissue culture plate and allowed to adhere to the plates for 30 minutes at 37° C. The cultures were then exposed to varying BPGC concentrations ranging between 5 and 0.01 μg/ml in 100 μl for 3 hrs at 37° C. Glycolipids not taken up by BMDCs were removed by washing with culture medium. To detect the BPGC presentation by CD1d, iNKT hybridoma DN3A4-1.2 (5000 cells in 100 μl volume) was added and the stimulation was detected by the level of IL-2 secreted in the supernatant following 18 hrs of incubation at 37° C.

[4] = target: T2, mouse CD1d (Mus musculus, UniProt P11609); assay: Tryptophan fluorescence quenching of mCD1d by glycolipid binding; settings: protein 0.1 μM, glycolipid 4 μM, 25° C., excited at λ295
T2 construct: recombinant soluble murine CD1d (mCD1d) was diluted to 400 μg/ml in PBS pH 7.2
T2 sequence (P11609 22-305 limits assumed): T1 sequence (P11609 22-305 limits assumed)
T2 sequence (P01887 21-119 partner): T1 sequence (P01887 21-119 partner)
Method: The effect of glycolipid binding to mouse CD1d was tested. Fluorescence quenching of mCD1d due to glycolipid binding was measured using a Horibo Jobin Yvon Fluoromax-3 fluorescent spectrophotometer and the data were analyzed using FluorEssence software. Protein (0.1 μM) was mixed either with glycolipid antigens (at 4 μM) or the ligand vehicle in a quartz cuvette 1 cm wide, to a final volume of 100 μl and placed in the spectrometer already set at 25° C. The samples were excited at λ295 and emission measured from […] to λ400.

[5] = tested on: mCD1d.CEA fusion protein; assay: Direct comparison of DB12-8 and 7DW8-5 complexes with mCD1d.CEA fusion protein, L363 ELISA; assay type: binding, murine
Method: as §1, §2
mCD1d.CEA (10 μg/ml), a recombinant mCD1d protein genetically fused with a single chain Fv antibody fragment specific for the tumor associated antigen CEA, was loaded with glycolipids (5 μM) overnight at 25° C. in PBS pH8.2 with 0.05% tyloxapol. The mCD1d.CEA:GC complexes (10 μg/ml, 30 μl/well) were coated onto wells of high binding ELISA 96 well plates overnight at 4° C. UV exposure and incubation to allow dissociation over 3 days were performed as described in Examples 6 and 7.
A scale up of the complex formation in solution was performed using a 10-fold increased concentration of protein and glycolipid and the results are shown in FIG. 9C-9D. mCD1d.CEA (100 μg/ml) was loaded with DB12-8 (50 μM respectively) overnight at 25° C. in PBS pH8.2 with 0.05% tyloxapol. DB12-8:mCD1d.CEA complexes were diluted down to 10 μg/ml and were coated onto the high binding ELISA plates (30 μl/well), overnight at 4° C. UV exposure and incubation to allow dissociation over 3 days were performed as described in Examples 6 and 7.

[6] = tested on: iNKT hybridoma DN3A4-1.2 with human CD1d transfected HeLa cells; assay: iNKT hybridoma stimulation (IL-2 secretion) with hCD1d expressing HeLa cells; assay type: cell-based; settings: BPGC 5 to 0.01 μg/ml for 3 hrs, hybridoma 18 hours
Method: The activated natural killer cells were again calculated based on those secreting IL-2. Specifically, plate bound human CD1d transfected HeLa cells (10,000 cells in 100 μl medium) were plated in a 96 well tissue culture plate and allowed to adhere to the plates for 30 minutes at 37° C. Adherent HeLa cells were treated with varying BPGC concentrations ranging between 5 and 0.01 μg/ml in 100 μl for 3 hrs at 37° C. Glycolipid not taken up by cells was removed by washing with medium. To detect the BPGC presentation by CD1d, iNKT hybridoma DN3A4-1.2 (5000 cells in 100 μl volume) was added and the stimulation was detected by the level of IL-2 secreted in the supernatant following incubation at 37° C. for 18 hours.

[7] = target: T3, soluble recombinant mCD1d (Mus musculus, UniProt P11609); assay: Direct comparison of DB12-8 and 7DW8-5 complexes with soluble recombinant mCD1d, L363 ELISA; assay type: binding, murine
T3 construct: A soluble recombinant mCD1d protein (10 μg/ml) was loaded with glycolipids
T3 sequence (P11609 22-305 limits assumed): T1 sequence (P11609 22-305 limits assumed)
T3 sequence (P01887 21-119 partner): T1 sequence (P01887 21-119 partner)
Method: as §1, §2
A soluble recombinant mCD1d protein (10 μg/ml) was loaded with glycolipids (5 μM) overnight at 25° C. in PBS pH8.2 with 0.05% tyloxapol. The mCD1d:GC complexes (10 μg/ml, 30 μl/well) were coated onto the high binding ELISA plates, overnight at 4° C. UV exposure and incubation to allow dissociation over 3 days was performed as described in Examples 6 and 7.

| dissociation of CD1d:glycolipid complex after 3 days (L363 ELISA) [1] | fluorescence quenching of mCD1d due to glycolipid binding [4] | dissociation after 3 days (L363 ELISA signal) ([7]; UV exposure at 365 nm) | affinity to CD1d, complex detected by L363 ELISA ([7]; mCD1d 10 μg/ml, glycolipid 5 μM) | dissociation after 3 days (L363 ELISA signal) ([7]; non UV-crosslinked state) | SMILES | CD1d/glycolipid complex formation detected by mAb L363 ELISA [1] | iNKT stimulation post-dissociation (IL-2 ELISA) [2] | iNKT stimulation, level of IL-2 secreted in the supernatant [3] | reduction in OD450 after 3 days ([5]; 10-fold scale up (mCD1d.CEA 100 μg/ml, DB12-8 50 μM), UV-crosslinked samples) | decrease in OD450 after 3 days incubation ([5]; 10-fold scale up (mCD1d.CEA 100 μg/ml, DB12-8 50 μM), non-crosslinked complexes) [%] | dissociation after 3 days (L363 ELISA signal) ([5]; UV exposure at 365 nm) | affinity to CD1d, complex detected by L363 ELISA ([5]; mCD1d.CEA 10 μg/ml, glycolipid 5 μM) | L363 ELISA signal following UV-crosslinking ([5]; mCD1d.CEA complex) | dissociation after 3 days (L363 ELISA signal) ([5]; non UV-crosslinked state) | iNKT stimulation, level of IL-2 secreted in the supernatant [6] | iNKT hybridoma stimulation following UV crosslinking (IL-2 ELISA) ([2]; UV crosslinked 365 nm 1 hr) | binding to CD1d ([2]; following UV crosslinking) |
| --- | --- | --- | --- | --- | --- | --- | --- | --- | --- | --- | --- | --- | --- | --- | --- | --- | --- |
| no significant dissociation |  |  |  |  | CCCCCCCCCCCCCC[C@@H](O)[C@@H](O)[C@H](COC1OC(CO)C(O)C(O)C1O)NC(=O)CCCCCCCCCCCOCc1cccc(C(=O)c2ccccc2)c1 (stereo partly drawn) [DB12-9] | highest levels of immunoreactive complex formation | some, albeit reduced, iNKT stimulation even after dissociation |  |  |  |  |  |  |  |  |  |  |
|  | greatest quenching |  |  |  | CCCCCCCCCCCCCC[C@@H](O)[C@@H](O)[C@H](COC1OC(CO)C(O)C(O)C1O)NC(=O)CCCCCCCCOCc1cccc(C(=O)c2ccccc2)c1 (stereo partly drawn) [DB12-7] |  | some, albeit reduced, iNKT stimulation even after dissociation | lower but still significant IL-2 secretion |  |  |  |  |  |  |  |  |  |
| no significant dissociation |  | no dissociation was observed | showed affinity to CD1d | dissociated almost completely | CCCCCCCCCCCCCC[C@@H](O)[C@@H](O)[C@H](COC1OC(CO)C(O)C(O)C1O)NC(=O)CCCCCCCCCCOCc1cccc(C(=O)c2ccccc2)c1 (stereo partly drawn) [DB12-8] | highest levels of immunoreactive complex formation | some, albeit reduced, iNKT stimulation even after dissociation |  | no detectable reduction in OD450 | ~75 | no dissociation was observed | showed affinity to CD1d | increases significantly | almost completely dissociated | stimulatory toward iNKT cells | stimulated iNKT hybridoma better than other glycolipids | bound efficiently to CD1d |
